Laboratory results reported in ChEMBL document CHEMBL2311283, “Structural modifications to tetrahydropyridine-3-carboxylate esters en route to the discovery of M5-preferring muscarinic receptor orthosteric antagonists” (J Med Chem, 2013).

What was measured:
[1] = biological target: Muscarinic acetylcholine receptor M3 (Homo sapiens, UniProt P20309); assay: Displacement of [3H]NMS from human M3 muscarinic receptor expressed in CHO-K1 cells; format: cell-based
[2] = biological target: T1, Muscarinic acetylcholine receptor M2 (Homo sapiens, UniProt P08172); assay: Displacement of [3H]NMS from human M2 muscarinic receptor expressed in CHO-K1 cells; format: cell-based
T1 sequence (P08172 whole entry): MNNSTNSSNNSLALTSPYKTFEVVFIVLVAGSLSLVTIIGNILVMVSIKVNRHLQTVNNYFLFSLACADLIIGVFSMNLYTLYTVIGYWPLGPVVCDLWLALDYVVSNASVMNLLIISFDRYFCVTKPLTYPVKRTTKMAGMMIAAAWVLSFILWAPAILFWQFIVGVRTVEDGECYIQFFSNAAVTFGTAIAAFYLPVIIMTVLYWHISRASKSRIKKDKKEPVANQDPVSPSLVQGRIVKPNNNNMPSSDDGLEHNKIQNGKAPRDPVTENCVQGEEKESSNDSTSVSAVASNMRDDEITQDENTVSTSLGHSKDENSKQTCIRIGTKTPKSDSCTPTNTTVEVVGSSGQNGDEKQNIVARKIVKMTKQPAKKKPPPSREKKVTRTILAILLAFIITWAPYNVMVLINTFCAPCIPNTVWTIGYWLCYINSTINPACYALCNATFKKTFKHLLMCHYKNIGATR

[3] = biological target: T2, Muscarinic acetylcholine receptor M5 (Homo sapiens, UniProt P08912); assay: Displacement of [3H]NMS from human M5 muscarinic receptor expressed in CHO-K1 cells; format: cell-based
T2 sequence (P08912 whole entry): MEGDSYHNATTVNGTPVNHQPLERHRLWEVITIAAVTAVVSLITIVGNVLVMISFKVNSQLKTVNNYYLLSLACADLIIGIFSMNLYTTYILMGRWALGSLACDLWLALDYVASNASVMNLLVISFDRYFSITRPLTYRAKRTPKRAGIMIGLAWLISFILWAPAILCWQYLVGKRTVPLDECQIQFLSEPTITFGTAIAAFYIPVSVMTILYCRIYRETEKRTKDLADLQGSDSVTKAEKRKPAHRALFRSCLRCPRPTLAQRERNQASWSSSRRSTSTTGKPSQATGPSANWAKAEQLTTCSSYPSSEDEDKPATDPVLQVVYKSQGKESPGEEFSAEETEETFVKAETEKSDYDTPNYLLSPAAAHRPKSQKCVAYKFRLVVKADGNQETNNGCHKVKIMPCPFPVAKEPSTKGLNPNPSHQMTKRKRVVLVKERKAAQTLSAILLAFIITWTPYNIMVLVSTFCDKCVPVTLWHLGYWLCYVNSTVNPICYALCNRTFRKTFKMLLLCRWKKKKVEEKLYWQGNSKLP

[4] = biological target: T3, Muscarinic acetylcholine receptor M1 (Homo sapiens, UniProt P11229); assay: biochemical; format: cell-based, CHO-K1
T3 sequence (P11229 whole entry): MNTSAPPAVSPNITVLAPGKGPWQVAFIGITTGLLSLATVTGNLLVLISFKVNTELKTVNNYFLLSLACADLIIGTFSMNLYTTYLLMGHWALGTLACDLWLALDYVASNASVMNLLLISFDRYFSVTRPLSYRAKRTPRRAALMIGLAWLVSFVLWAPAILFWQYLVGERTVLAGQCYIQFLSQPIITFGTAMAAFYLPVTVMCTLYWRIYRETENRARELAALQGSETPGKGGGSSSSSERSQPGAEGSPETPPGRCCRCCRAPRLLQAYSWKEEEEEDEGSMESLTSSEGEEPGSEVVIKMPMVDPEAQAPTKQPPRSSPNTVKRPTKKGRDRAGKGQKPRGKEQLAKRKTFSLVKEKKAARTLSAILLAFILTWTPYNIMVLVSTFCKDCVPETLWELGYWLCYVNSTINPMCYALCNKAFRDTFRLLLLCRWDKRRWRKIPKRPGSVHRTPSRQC

Homo sapiens [5] = organism: Homo sapiens; assay: Selectivity index, ratio of Ki for human M1 muscarinic receptor to Ki for human M5 muscarinic receptor
Homo sapiens [6] = organism: Homo sapiens; assay: Selectivity index, ratio of Ki for human M3 muscarinic receptor to Ki for human M5 muscarinic receptor
[7] = biological target: T4, Muscarinic acetylcholine receptor M4 (Homo sapiens, UniProt P08173); assay: Displacement of [3H]NMS from human M4 muscarinic receptor expressed in CHO-K1 cells; format: cell-based
T4 sequence (P08173 whole entry): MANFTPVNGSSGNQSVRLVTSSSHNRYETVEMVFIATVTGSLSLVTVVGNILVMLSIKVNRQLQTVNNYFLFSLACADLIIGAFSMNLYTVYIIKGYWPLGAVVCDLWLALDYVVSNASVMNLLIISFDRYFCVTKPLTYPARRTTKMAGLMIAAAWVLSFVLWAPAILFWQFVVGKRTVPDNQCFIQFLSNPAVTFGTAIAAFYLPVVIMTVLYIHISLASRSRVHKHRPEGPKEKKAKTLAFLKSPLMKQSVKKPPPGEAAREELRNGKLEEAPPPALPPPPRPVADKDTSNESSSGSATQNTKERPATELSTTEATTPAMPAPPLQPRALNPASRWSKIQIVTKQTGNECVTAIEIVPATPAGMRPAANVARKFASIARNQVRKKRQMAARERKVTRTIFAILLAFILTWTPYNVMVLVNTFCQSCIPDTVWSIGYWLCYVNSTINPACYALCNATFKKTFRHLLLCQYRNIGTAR

Homo sapiens [8] = organism: Homo sapiens; assay: Selectivity index, ratio of Ki for human M4 muscarinic receptor to Ki for human M5 muscarinic receptor

Muscarinic acetylcholine receptor M3, sequence (P20309 whole entry): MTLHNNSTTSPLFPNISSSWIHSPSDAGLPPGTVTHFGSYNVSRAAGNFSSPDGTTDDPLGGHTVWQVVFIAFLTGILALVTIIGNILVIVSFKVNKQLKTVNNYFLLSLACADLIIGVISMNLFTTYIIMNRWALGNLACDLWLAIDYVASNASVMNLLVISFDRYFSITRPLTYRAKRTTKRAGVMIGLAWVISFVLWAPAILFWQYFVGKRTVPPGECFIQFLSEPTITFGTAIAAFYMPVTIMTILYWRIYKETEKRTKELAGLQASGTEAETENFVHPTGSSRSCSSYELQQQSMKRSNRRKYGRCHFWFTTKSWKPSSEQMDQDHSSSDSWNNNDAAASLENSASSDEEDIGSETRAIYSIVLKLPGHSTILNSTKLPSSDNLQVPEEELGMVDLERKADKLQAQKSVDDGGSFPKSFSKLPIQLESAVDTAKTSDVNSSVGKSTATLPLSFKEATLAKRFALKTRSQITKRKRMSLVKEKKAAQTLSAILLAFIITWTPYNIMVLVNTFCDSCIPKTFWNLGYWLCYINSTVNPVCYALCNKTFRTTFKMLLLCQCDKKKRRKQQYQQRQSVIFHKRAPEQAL

| Compound | Ki [1] [µM] | Ki [2] [µM] | Ki [3] [µM] | Ki [4] [µM] | Ratio Ki (Homo sapiens [5]) | Ratio Ki (Homo sapiens [6]) | Ki [7] [µM] | Ratio Ki (Homo sapiens [8]) |
| --- | --- | --- | --- | --- | --- | --- | --- | --- |
| CN1CCC(c2ccccc2)=C(C(=O)OCCc2ccc3c(c2)CCO3)C1 | 2.84 | 1.17 | 0.06 | 0.29 | 4.8 | 47 | 1.89 | 32 |
| CCCCN1CCC(c2ccccc2)=C(C(=O)OCCc2ccc3c(c2)CCO3)C1 |  |  | > 100 | > 100 |  |  |  |  |
| CN1CCC(c2ccccc2)=C(C(=O)OCc2ccc3c(c2)CCO3)C1 |  |  | > 100 | > 100 |  |  |  |  |
| CCCN1CCC(c2ccccc2)=C(C(=O)OCCc2ccc3c(c2)CCO3)C1 |  |  | > 100 | > 100 |  |  |  |  |
| CN1CCC(c2ccccc2)=C(C(=O)OCCc2cccc3ccccc23)C1 | > 100 | > 100 | 5.04 | 24.4 | 4.8 | > 20 | > 100 | > 20 |
| CCN1CCC(c2ccccc2)=C(C(=O)OCCCc2ccc(OC)cc2)C1 | 4.07 | 2.03 |  |  |  |  | 11.5 |  |
| CCOC(=O)C1=C(c2ccccc2)CCN(CCc2ccccc2)C1 |  |  | > 100 | > 100 |  |  |  |  |
| COc1ccc(CCOC(=O)C2=C(c3cccc(F)c3)CCN(C)C2)cc1OC | > 100 | > 100 | 3.34 | 27 | 8.1 | > 30 | > 100 | > 30 |
| CCOC(=O)C1=C(c2ccccc2)CCN(C2CCN(C(=O)c3c(Cl)cccc3Cl)CC2)C1 |  |  | > 100 | > 100 |  |  |  |  |
| CCN1CCC(c2ccc(F)cc2)=C(C(=O)OCCc2ccc3c(c2)CCO3)C1 |  |  | 2.35 | 7.9 | 3.4 |  |  |  |
| CCN1CCC(c2ccccc2)=C(C(=O)OCCc2ccc(OC)c(F)c2)C1 |  |  | 2.46 | 11.7 | 4.8 |  |  |  |
| COc1ccc(OCCOC(=O)C2=C(c3ccccc3)CCN(C)C2)cc1 |  |  | 3.07 | 6.19 | 2 |  |  |  |
| CCOC(=O)C1=C(c2ccccc2)CCN(CCc2ccc3c(c2)OCO3)C1 |  |  | > 100 | > 100 |  |  |  |  |
| CCN1CCC(c2ccccc2)=C(C(=O)OCc2ccc(OC)cc2)C1 |  |  | 3.61 | 3.06 | 0.8 |  |  |  |
| COc1ccc(CCOC(=O)C2=C(c3ccccc3)CCN(C)C2)cc1C |  |  | 0.74 | 2.7 | 3.6 |  |  |  |
| CSc1ccc(CCOC(=O)C2=C(c3ccccc3)CCN(C)C2)cc1 |  |  | 0.19 | 0.34 | 1.8 |  |  |  |
| CCCCN1CCC(c2ccccc2)=C(C(=O)OCCc2ccc(OC)cc2)C1 |  |  | > 100 | > 100 |  |  |  |  |
| CN1CCC(c2cccc(F)c2)=C(C(=O)OCCc2ccc3c(c2)CCO3)C1 |  |  | > 100 | > 100 |  |  |  |  |
| CN1CC=C(c2ccccc2C(=O)OCCc2ccc3c(c2)CCO3)CC1 |  |  | > 100 | > 100 |  |  |  |  |
| COc1ccc(CCOC(=O)C2=C(c3ccccc3)CCN(Cc3ccc(OC)cc3)C2)cc1 |  |  | > 100 | > 100 |  |  |  |  |
| CCOC(=O)C1=C(c2ccccc2)CCN(CCc2ccc3c(c2)CCO3)C1 |  |  | > 100 | > 100 |  |  |  |  |
| CCOC(=O)C1=C(c2ccccc2)CCN(C2CCN(C(=O)c3c(C)cccc3C)CC2)C1 |  |  | > 100 | > 100 |  |  |  |  |
| CCN1CCC(c2ccccc2)=C(C(=O)OCCc2ccc(S(C)(=O)=O)cc2)C1 |  |  | > 100 | > 100 |  |  |  |  |
| CCOC(=O)C1=C(c2ccccc2)CCN(CCc2ccc(OC)cc2)C1 |  |  | > 100 | > 100 |  |  |  |  |

| Compound | Ki [1] [µM] | Ki [2] [µM] | Ki [3] [µM] | Ki [4] [µM] | Ratio Ki (Homo sapiens [5]) | Ratio Ki (Homo sapiens [6]) | Ki [7] [µM] | Ratio Ki (Homo sapiens [8]) |
| --- | --- | --- | --- | --- | --- | --- | --- | --- |
| COc1ccc(CCCCOC(=O)C2=C(c3ccccc3)CCN(C)C2)cc1 |  |  | 1.16 | 5.4 | 4.7 |  |  |  |
| CCN1CCC(c2ccccc2)=C(C(=O)OCCc2ccsc2)C1 |  |  | 0.19 | 0.14 | 0.7 |  |  |  |
| COC(COC(=O)C1=C(c2ccccc2)CCN(C)C1)c1ccccc1 (stereo not given) |  |  | > 100 | > 100 |  |  |  |  |
| CCN1CCC(c2ccccc2)=C(C(=O)OCCc2ccc([N+](=O)[O-])cc2)C1 |  |  | 0.44 | 0.81 | 1.8 |  |  |  |
| COc1ccccc1C1=C(C(=O)OCCc2ccc3c(c2)CCO3)CN(C)CC1 |  |  | 2.41 | 8.35 | 3.5 |  |  |  |
| CCN1CCC(c2ccccc2)=C(C(=O)OCc2ccc3c(c2)OCO3)C1 |  |  | 0.12 | 0.06 | 0.5 |  |  |  |
| COc1ccc(CCOC(=O)C2=C(c3ccccc3)CCN(C)C2)cc1 |  |  | 0.03 | 0.02 | 0.7 |  |  |  |
| COc1ccc(CCOC(=O)C2=C(c3ccccc3F)CCN(C)C2)cc1OC |  |  | > 100 | > 100 |  |  |  |  |
| CN1CCC(C(=O)OCCc2ccc3c(c2)CCO3)=C(c2ccccc2)C1 |  |  | 1.14 | 0.21 |  |  |  |  |
| COc1ccc(CCOC(=O)C2=C(c3ccccc3)CN(C)CC2)cc1OC |  |  | 2.62 | 6.16 |  |  |  |  |
| CCN1CCC(c2ccccc2)=C(C(=O)OCCc2cccc(OC)c2)C1 |  |  | 0.15 | 0.47 | 3.1 |  |  |  |
| Cc1cccc(CCOC(=O)C2=C(c3ccccc3)CCN(C)C2)c1 |  |  | 0.28 | 0.88 | 3.1 |  |  |  |
| CN1CCC(c2ccccc2)=C(C(=O)OCCc2ccc(S(C)(=O)=O)cc2)C1 |  |  | 0.11 | 0.51 | 4.6 |  |  |  |
| CN1CCC(c2ccccc2)=C(C(=O)OCCc2cccc(F)c2)C1 |  |  | 0.08 | 0.33 | 4.1 |  |  |  |
| CCN1CCC(c2ccccc2)=C(C(=O)OCCc2ccc3c(c2)OCO3)C1 |  |  | 0.28 | 0.2 | 0.7 |  |  |  |
| CN1CCC(c2ccccc2F)=C(C(=O)OCCc2ccc3c(c2)CCO3)C1 | 4.89 | 0.54 | 0.74 | 5.27 | 7 | 6.6 | 5.74 | 7.8 |
| CCN1CCC(c2ccccc2)=C(C(=O)OCCc2cc(OC)c(OC)c(OC)c2)C1 |  |  | > 100 | > 100 |  |  |  |  |
| CCOC(=O)C1=C(c2ccccc2)CCN(C2CCN(S(=O)(=O)c3ccc(C)cc3)CC2)C1 |  |  | > 100 | > 100 |  |  |  |  |
| COc1cccc(C2=C(C(=O)OCCc3ccc4c(c3)CCO4)CN(C)CC2)c1 |  |  | 2.68 | 2.43 | 0.9 |  |  |  |
| CCCN1CCC(c2ccccc2)=C(C(=O)OCCc2ccc(OC)cc2)C1 |  |  | > 100 | > 100 |  |  |  |  |
| COc1cccc(C2=C(C(=O)OCCc3ccc(OC)c(OC)c3)CN(C)CC2)c1 |  |  | > 100 | > 100 |  |  |  |  |
| COc1ccc(CCOC(=O)C2=C(c3ccccc3OC)CCN(C)C2)cc1OC |  |  | > 100 | > 100 |  |  |  |  |
| CCN1CCC(c2ccccc2)=C(C(=O)O[C@@H](C)Cc2ccc(OC)cc2)C1 |  |  | > 100 | > 100 |  |  |  |  |
| CN1CCC(c2ccccc2)=C(C(=O)OCCCc2ccc3c(c2)CCO3)C1 |  |  | 0.63 | 0.92 | 1.5 |  |  |  |
